Assay results as given in patent US8551984B2, “Aminopyrimidines as SYK inhibitors” (Merck Sharp & Dohme Corp., priority 2009, dated 2013).

These compounds were tested against rhSYK (Homo sapiens, UniProt P43405) (assay: biochemical).

| SMILES | IC50 [nM] |
| --- | --- |
| Cc1cc(Nc2nccc(C(F)(F)F)n2)cc(-c2cnc(C3(O)CCC(C(=O)NCC(O)CO)CC3)s2)c1 (centres unmarked) [Example 119-32] | < 100 |
| Cc1cc(Nc2nccc(C(F)(F)F)n2)cc(-c2cnc(C3(O)CCC(C(=O)Nc4ccncc4)CC3)s2)c1 (centres unmarked) [Example 119-34] | < 100 |
| Cc1cc(Nc2nccc(C(F)(F)F)n2)cc(-c2cnc([C@]3(O)CC[C@@H](C(=O)Nc4ccccn4)CC3)s2)c1 [Example 119-35] | < 100 |
| Cc1cc(Nc2nccc(C(F)(F)F)n2)cc(-c2cnc([C@]3(O)CC[C@@H](C(=O)Nc4cccnc4)CC3)s2)c1 [Example 119-36] | < 100 |
| Cc1cc(Nc2nccc(C(F)(F)F)n2)cc(-c2cnc(C3(O)CCC(C(=O)N4CCC(C#N)C4)CC3)s2)c1 (centres unmarked) [Example 119-37] | < 100 |
| Cc1cc(Nc2nccc(C(F)(F)F)n2)cc(-c2cnc(C3(O)CCC(C(=O)NCc4cc[nH]n4)CC3)s2)c1 (centres unmarked) [Example 119-39] | < 100 |
| CCN(CCC#N)C(=O)C1CCC(O)(c2ncc(-c3cc(C)cc(Nc4nccc(C(F)(F)F)n4)c3)s2)CC1 (centres unmarked) [Example 119-40] | < 100 |
| Cc1cc(Nc2nccc(C(F)(F)F)n2)cc(-c2cnc(C3(O)CCC(C(=O)NCc4cocn4)CC3)s2)c1 (centres unmarked) [Example 119-42] | < 100 |
| Cc1cc(Nc2nccc(C(F)(F)F)n2)cc(-c2cnc(C3(O)CCC(C(=O)NC4CCCCC4)CC3)s2)c1 (centres unmarked) [Example 119-44] | < 100 |
| Cc1cc(Nc2nccc(C(F)(F)F)n2)cc(-c2cnc([C@]3(O)CC[C@@H](C(=O)N4CCN(C)CC4)CC3)s2)c1 [Example 119-46] | < 100 |
| Cc1cc(Nc2nccc(C(F)(F)F)n2)cc(-c2cnc([C@]3(O)CC[C@@H](C(=O)N4CCC(O)CC4)CC3)s2)c1 [Example 119-47] | < 100 |
| CC(=O)NCCNC(=O)[C@H]1CC[C@](O)(c2ncc(-c3cc(C)cc(Nc4nccc(C(F)(F)F)n4)c3)s2)CC1 [Example 119-49] | < 100 |
| Cc1cc(Nc2nccc(C(F)(F)F)n2)cc(-c2cnc([C@]3(O)CC[C@@H](C(=O)N(CCO)CCO)CC3)s2)c1 [Example 119-50] | < 100 |
| Cc1cc(Nc2nccc(C(F)(F)F)n2)cc(-c2cnc([C@]3(O)CC[C@@H](C(=O)NCc4ccccc4)CC3)s2)c1 [Example 119-51] | < 100 |
| Cc1cc(Nc2nccc(C(F)(F)F)n2)cc(-c2cnc([C@]3(O)CC[C@@H](C(=O)NCc4ccccn4)CC3)s2)c1 [Example 119-54] | < 100 |
| Cc1cc(Nc2nccc(C(F)(F)F)n2)cc(-c2cnc([C@]3(O)CC[C@@H](C(=O)Nc4ccc(O)cc4)CC3)s2)c1 [Example 119-55] | < 100 |
| Cc1cc(Nc2nccc(C(F)(F)F)n2)cc(-c2cnc([C@]3(O)CC[C@@H](C(=O)Nc4ccccc4O)CC3)s2)c1 [Example 119-56] | < 100 |

| SMILES | IC50 [nM] |
| --- | --- |
| Cc1cc(Nc2nccc(C(F)(F)F)n2)cc(-c2cnc(C3(O)CCC(C(=O)N4CCC(C#N)CC4)CC3)s2)c1 (centres unmarked) [Example 119-59] | < 100 |
| Cc1cc(Nc2nccc(C(F)(F)F)n2)cc(-c2cnc(C3(O)CCC(C(=O)N4CCCC(C#N)C4)CC3)s2)c1 (centres unmarked) [Example 119-60] | < 100 |
| Cc1cc(Nc2nccc(C(F)(F)F)n2)cc(-c2cnc([C@]3(O)CC[C@@H](C(=O)Nc4ccc(F)cc4)CC3)s2)c1 [Example 119-62] | < 100 |
| Cc1cc(Nc2nccc(C(F)(F)F)n2)cc(-c2cnc([C@]3(O)CC[C@@H](C(=O)NCc4cccs4)CC3)s2)c1 [Example 119-63] | < 100 |
| CC(=O)N(C)CCNC(=O)C1CCC(O)(c2ncc(-c3cc(C)cc(Nc4nccc(C(F)(F)F)n4)c3)s2)CC1 (centres unmarked) [Example 119-68] | < 100 |
| Cc1cc(Nc2nccc(C(F)(F)F)n2)cc(-c2cnc(C3(O)CCC(C(=O)N(C)Cc4ccccc4)CC3)s2)c1 (centres unmarked) [Example 119-69] | < 100 |
| Cc1cc(Nc2nccc(C(F)(F)F)n2)cc(-c2cnc(C3(O)CCC(C(=O)NCCc4ccccc4)CC3)s2)c1 (centres unmarked) [Example 119-70] | < 100 |
| Cc1cc(Nc2nccc(C(F)(F)F)n2)cc(-c2cnc([C@]3(O)CC[C@@H](C(=O)NCc4cccc(O)c4)CC3)s2)c1 [Example 119-71] | < 100 |
| Cc1cc(Nc2nccc(C(F)(F)F)n2)cc(-c2cnc([C@]3(O)CC[C@@H](C(=O)Nc4ccc(CO)cc4)CC3)s2)c1 [Example 119-72] | < 100 |
| Cc1cc(Nc2nccc(C(F)(F)F)n2)cc(-c2cnc([C@]3(O)CC[C@@H](C(=O)Nc4cccc(CO)c4)CC3)s2)c1 [Example 119-73] | < 100 |
| Cc1cc(Nc2nccc(C(F)(F)F)n2)cc(-c2cnc([C@]3(O)CC[C@@H](C(=O)NCc4ccccc4O)CC3)s2)c1 [Example 119-74] | < 100 |
| Cc1cc(Nc2nccc(C(F)(F)F)n2)cc(-c2cnc([C@]3(O)CC[C@@H](C(=O)NCc4ccc(O)cc4)CC3)s2)c1 [Example 119-75] | < 100 |
| Cc1cc(Nc2nccc(C(F)(F)F)n2)cc(-c2cnc([C@]3(O)CC[C@@H](C(=O)Nc4ccc(O)cc4O)CC3)s2)c1 [Example 119-76] | < 100 |
| Cc1cc(Nc2nccc(C(F)(F)F)n2)cc(-c2cnc(C3(O)CCC(C(=O)NCc4ccc(F)cc4)CC3)s2)c1 (centres unmarked) [Example 119-77] | < 100 |
| CC(=O)NCCCCNC(=O)[C@H]1CC[C@](O)(c2ncc(-c3cc(C)cc(Nc4nccc(C(F)(F)F)n4)c3)s2)CC1 [Example 119-81] | < 100 |
| Cc1cc(Nc2nccc(C(F)(F)F)n2)cc(-c2cnc([C@]3(O)CC[C@@H](C(=O)Nc4ccc5[nH]ccc5c4)CC3)s2)c1 [Example 119-82] | < 100 |
| Cc1cc(Nc2nccc(C(F)(F)F)n2)cc(-c2cnc([C@]3(O)CC[C@@H](C(=O)NCCCc4ccccc4)CC3)s2)c1 [Example 119-83] | < 100 |

More lines, now with the values ahead:

| IC50 [nM] | SMILES |
| --- | --- |
| < 100 | Cc1cc(Nc2nccc(C(F)(F)F)n2)cc(-c2cnc(C3(O)CCC(C(=O)NCCOc4ccccc4)CC3)s2)c1 (centres unmarked) [Example 119-84] |
| < 100 | Cc1cc(Nc2nccc(C(F)(F)F)n2)cc(-c2cnc([C@]3(O)CC[C@@H](C(=O)NCc4ccc(O)c(O)c4)CC3)s2)c1 [Example 119-86] |
| < 100 | Cc1cc(Nc2nccc(C(F)(F)F)n2)cc(-c2cnc([C@]3(O)CC[C@@H](C(=O)NCc4ccc(Cl)cc4)CC3)s2)c1 [Example 119-87] |
| < 100 | Cc1cc(Nc2nccc(C(F)(F)F)n2)cc(-c2cnc([C@]3(O)CC[C@@H](C(=O)NCCCN4CCCC4=O)CC3)s2)c1 [Example 119-88] |
| < 100 | Cc1cc(Nc2nccc(C(F)(F)F)n2)cc(-c2cnc(C3(O)CCC(C(=O)NC4CCC(C(N)=O)CC4)CC3)s2)c1 (centres unmarked) [Example 119-90] |
| < 100 | Cc1cc(Nc2nccc(C(F)(F)F)n2)cc(-c2cnc(C3(O)CCC(C(=O)NC4CCC(C(=O)O)CC4)CC3)s2)c1 (centres unmarked) [Example 119-91] |
| < 100 | COC(=O)N1CCN(C(=O)C2CCC(O)(c3ncc(-c4cc(C)cc(Nc5nccc(C(F)(F)F)n5)c4)s3)CC2)CC1 (centres unmarked) [Example 119-92] |
| < 100 | Cc1cc(Nc2nccc(C(F)(F)F)n2)cc(-c2cnc(C3(O)CCC(C(=O)NC4CCCc5ccccc54)CC3)s2)c1 (centres unmarked) [Example 119-93] |
| < 100 | Cc1cc(Nc2nccc(C(F)(F)F)n2)cc(-c2cnc([C@]3(O)CC[C@@H](C(=O)NCc4cn5ccccc5n4)CC3)s2)c1 [Example 119-94] |
| < 100 | Cc1cc(Nc2nccc(C(F)(F)F)n2)cc(-c2cnc(C3(O)CCC(C(=O)NC4c5ccccc5CC4O)CC3)s2)c1 (centres unmarked) [Example 119-95] |
| < 100 | Cc1cc(Nc2nccc(C(F)(F)F)n2)cc(-c2cnc([C@]3(O)CC[C@@H](C(=O)NCc4cccc5c4C(=O)NC5)CC3)s2)c1 [Example 119-96] |
| < 100 | Cc1cc(Nc2nccc(C(F)(F)F)n2)cc(-c2cnc([C@]3(O)CC[C@@H](C(=O)NCc4ccc5c(c4)C(=O)NC5)CC3)s2)c1 [Example 119-97] |
| < 100 | Cc1cc(Nc2nccc(C(F)(F)F)n2)cc(-c2cnc([C@]3(O)CC[C@@H](C(=O)NCc4ccc5c(c4)CNC5=O)CC3)s2)c1 [Example 119-99] |
| < 100 | Cc1cc(Nc2nccc(C(F)(F)F)n2)cc(-c2cnc([C@]3(O)CC[C@@H](C(=O)NCc4ccc(C(F)(F)F)cc4)CC3)s2)c1 [Example 119-100] |
| 100 to 1000 | Cc1cc(Nc2nccc(C(F)(F)F)n2)cc(-c2cnc([C@]3(O)CC[C@@H](C(=O)N4CCC(Cc5ccccc5)CC4)CC3)s2)c1 [Example 119-102] |
| < 100 | Cc1cc(Nc2nccc(C(F)(F)F)n2)cc(-c2cnc([C@]3(O)CC[C@@H](C(=O)NCc4ccc5c(c4)NC(=O)CC5)CC3)s2)c1 [Example 119-103] |
| < 100 | Cc1cc(Nc2nccc(C(F)(F)F)n2)cc(-c2cnc([C@]3(O)CC[C@@H](C(=O)NCc4ccc(-n5cc(CO)cn5)cc4)CC3)s2)c1 [Example 119-105] |
| < 100 | Cc1cc(Nc2nccc(C(F)(F)F)n2)cc(-c2cnc(C3(O)CCC(C(=O)NCc4ccc(CC5COC(=O)N5)cc4)CC3)s2)c1 (centres unmarked) [Example 119-106] |
| < 100 | Cc1cc(Nc2nccc(C)n2)cc(-c2cnc(C3(O)CCC(C(=O)NCC#N)C(C)C3)s2)c1 (centres unmarked) [Example 119-108] |
| < 100 | Cc1cc(Nc2nccc(C(C)(C)C)n2)cc(-c2cnc(C3(O)CCC(C(N)=O)C(C)C3)s2)c1 (centres unmarked) [Example 119-109] |
| < 100 | Cc1cc(Nc2nccc(OC(C)C)n2)cc(-c2cnc(C3(O)CCC(C(N)=O)C(C)C3)s2)c1 (centres unmarked) [Example 119-110] |
| < 100 | Cc1cc(Nc2nccc(C(C)C)n2)cc(-c2cnc(C3(O)CCC(C(=O)NCC#N)C(C)C3)s2)c1 (centres unmarked) [Example 119-113] |
| < 100 | Cc1cc(Nc2nccc(C)n2)cc(-c2cnc(C3(O)CCC(C(=O)NCc4cccnc4)C(C)C3)s2)c1 (centres unmarked) [Example 119-114] |
| < 100 | Cc1cc(Nc2nccc(C(C)C)n2)cc(-c2cnc(C3(O)CCC(C(=O)NCc4cccnc4)C(C)C3)s2)c1 (centres unmarked) [Example 119-115] |
| < 100 | COc1ccnc(Nc2cc(C)cc(-c3cnc(C4(O)CCC(C(N)=O)C(C)(C)C4)s3)c2)n1 (centres unmarked) [Example 119-117] |
| < 100 | Cc1cc(Nc2nccc(C3CC3)n2)cc(-c2cnc(C3(O)CCC(C(N)=O)C(C)(C)C3)s2)c1 (centres unmarked) [Example 119-118] |
| < 100 | Cc1cc(Nc2nccc(C(C)C)n2)cc(-c2cnc(C3(O)CCC(C(N)=O)C(C)(C)C3)s2)c1 (centres unmarked) [Example 119-119] |
| < 100 | Cc1cc(Nc2nccc(C(C)O)n2)cc(-c2cnc(C3(O)CCC(C(N)=O)C(C)(C)C3)s2)c1 (centres unmarked) [Example 119-120] |
